Series [1] deals with primary rat astrocytes. The series is described as follows: Global gene expression analysis (Affymetrix GeneChip) in astrocytes treated with DMF. Format: cell-based. Conditions: p<10^−7 versus untreated astrocytes, FIG. 10. How it is done: Global analysis of gene expression in astrocytes treated with DMF was performed using the Affymetrix GeneChip technology. […] The resulting gene list was annotated using the Ingenuity IPA database. […] Specific genes involved in cytoprotection and glutathione metabolism, identified in this assay, include, but are not limited to, Gsta2, Gsta3, Gclc, Ggt1, Txnrd1, Srxn1, Sqstm1, and Nqo1.

The next series concerns primary astrocytes. The series is described as follows: Gene expression profiling of LPS stimulated primary astrocytes. It counts as cell-based, rat. The settings on record: LPS 0, 10, 100 ng/ml; DMF 0, 3, 10, 30 μM, FIG. 5. The procedure:
Primary astrocytes were treated with LPS at 0, 10, and 100 ng/ml, as indicated, and also treated with DMF at 0, 3, 10, or 30 μM as indicated. The magnitude of expression of each gene under each condition was scaled from 0 to 1, so that differences in color represent changes in expression of each gene as the conditions varied. The darkest green color represents no detectable expression (0), while the brightest red color represents the highest expression measured for that gene (1). […] The induced expression of many of the markers was suppressed by DMF treatment.
Direct effects of BG00012 on specific astrocytic and microglial cells were tested in vitro using primary rat astrocytes and RAW264.7 macrophage cells.

The subject of series [2] is Nrf2. The series is described as follows: Nrf2 Western blotting, primary human astrocytes. Conditions: total cell lysates, GAPDH control, FIG. 9. Format: cell-based. The procedure:
(§1) Total cell lysates were prepared from the astrocyte cultures treated as indicated above. Nrf2 was detected by Western blotting. GAPDH was included as a housekeeping protein control.
For orientation: Immunoblotting shows a protein as a band on a membrane.

The subject of series [3] is primary rat astrocytes. Description: Quantitative PCR of gene expression in primary cultured astrocytes, with or without LPS. It counts as cell-based. The procedure: Rat astrocytes from cortex, hippocampus and striatum (Lonza clontech) were cultured as described by manufacturers protocol. Limiting dilutions of DMF in DMSO were added to cultures for 6 or 24 hours and stimulated with E. Coli LPS (Sigma). RNA was prepared using QIAgen Rneasy method. […] It is also apparent from the data that NQO1 is induced at a higher level by exposure to DMF for 24 hrs compared to induction by a 6 hour exposure. Direct effects of BG00012 on specific astrocytic and microglial cells were tested in vitro using primary rat astrocytes and RAW264.7 macrophage cells.

Series [4] has as its system rat EAE (MOG/IFA immunized Brown Norway rats). Description: Rat EAE model, clinical score. Format: in vivo. Conditions: FIG. 1A. How it is done:
Female Brown Norway rats (Charles River Laboratories) were immunized intradermally at the base of the tail with MOG 1-125 100 ug/rat in IFA at day 0. Day 3 DMF (BG00012) qd 5, 25, 50, 100, 200 mg/kg delivered orally as a suspension in 0.8% HPMC. N=6 per group. Scoring 0=no disease, 1=tail paralysis, 2=hind limb weakness, 3=hind limb paralysis, 4=hind limb paralysis and forelimb weakness, 5=moribund or dead. Experimental in vivo procedures were performed in accordance with Institutional Animal Committee guidelines crEAE was induced by intradermal MOG/IFA immunization in Brown Norway rats. BG00012 was administered orally at a daily interval beginning three days after immunization. […] For the 100 mg/kg treatment group, average disease score at day 28 was 0.71 (n=6, SD=1.17) compared to 2.29 (n=6, SD=1.29) for the vehicle group.

Series [5] has as its system Nrf2. Description: Nrf2 Western blotting, primary rat astrocytes. It counts as cell-based. The settings on record: total cell lysates, GAPDH control, FIG. 9. How it is done:
as §1

The next series relates to rat spinal cords (EAE). Description: Histology and morphometry of lumbar spinal cord sections of EAE rats (GFAP, IBA-1, Luxol Fast Blue). Format: in vivo. The procedure: Lumbar spinal cord sections were prepared as FFPE sections for immunohistochemistry and processed on DAKO autostainer using GFAP antibody (DAKO), IBA-1 (Wako), CD3 (DAKO). Aperio Spectrum Color Deconvolution software was used for morphometric analysis. […] Panels (a) and (b) are from a rat treated with vehicle alone at 5× and 20× magnification, respectively, while panels (c) and (d) are from a rat treated with 100 mg/kg DMF, shown at 5× and 20× magnification, respectively. […] Morphometry analysis of EAE spinal cords was performed with Aperio software. Histological alterations were quantified with Aperio Image Scope software v10.1. The Color Deconvolution algorithm was used to select intensity thresholds either for brown DAB staining (GFAP and IBA-1 Immunostains) or for bright turquoise blue staining (Luxol Fast Blue). Positive staining was determined by the percent of strong positive stained pixels for each intensity threshold. Three lumbar spinal cord sections were quantitated per rat and the values for percent strong positive pixels were averaged for the final intensity value.

The test system of series [6] is human spinal cord astrocytes. The series is described as follows: Glutathione, metabolic activity and viability of cultured human spinal cord astrocytes. The settings on record: 24 hr MMF titration, FIG. 6C. Format: cell-based. The procedure: Primary cultures of human spinal cord astrocytes were treated for 24 hr with a titration of MMF or DMSO as a diluent control. Following 24 hr incubation with compound, cells were washed 1× with growth media and incubated with the cell-permeant substrate monochlorobimane. When bound to glutathione this substrate increases fluorescence. […] FIG. 6A. Similar MMF treated cells were also incubated with the cell permeant substrate resazurin, which increases fluorescence upon reduction to resorufin by cellular redox mechanisms and is used as a measure of cellular metabolic activity (CellTiter-Blue assay). […] FIG. 6B. To ensure the increases in glutathione and metabolic activity were not simply due to cellular proliferation in response to MMF treatment, parallel dishes of cells were incubated with calcein AM. Cellular esterases cleave this molecule to generate a fluorescent metabolite, which provides a measure of cell viability and relative total cell numbers. […] FIG. 6C.

The subject of series [7] is human spinal cord astrocytes. The series is described as follows: H2O2 challenge of human spinal cord astrocytes: viability, metabolism, ATP. It counts as cell-based. The settings on record: FIG. 8C. The procedure: In another experiment, primary cultures of human spinal cord astrocytes were treated for 24 hr with a titration of MMF or DMSO as a diluent control. Following 24 hr incubation with compound, cells were washed 1× with HBSS and challenged with […] H2O2 for two hours, then washed in normal growth media, then incubated for an additional 24 hours.

Series [8] concerns human spinal cord astrocytes. Description: H2O2-induced Ca++ mobilization in human spinal cord astrocytes (Calcium4 dye). It counts as cell-based. The settings on record: Astrocyte, 24 hr MMF, 50 mM H2O2, FIG. 7C, read-out: EC50, protection against H2O2-induced Ca++ mobilization (non-linear regression). How it is done: In another experiment, primary cultures of human spinal cord astrocytes were treated for 24 hr with a titration of MMF or DMSO as a diluent control. Following 24 hr incubation with compound, cells were washed 1× with HBSS and incubated with Calcium4 (Molecular Devices) loading dye. This dye permeates into cells and increases fluorescence upon binding of free intracellular Ca^++. Cells were then challenged with 50 mM H2O2 and monitored for changes in fluorescence. […] FIG. 7C.

Structures can show the parent of a compound that is named as a salt.

The values that follow come from patent US20150132747A1, “Treatment of Neurodegeneration and Neuroinflammation” (BIOGEN IDEC MA INC., priority 2009, published 2015).

With `COC(=O)/C=C/C(=O)OC` [DMF, dimethyl fumarate], the “expression of Nrf2 target genes (incl. glutathione metabolism genes)” value in the series with primary rat astrocytes [1] is recorded as “activates expression of Nrf2 target genes”. Besides, the “LPS-induced expression of Ccl20, Ccl3, Ccl4, Cxcl1, Cxcl10, Cxcl2, Cxcl3, Cxcl6, IL1a, II1b, Tnf, Ifit3, Zc3h12a” value in the series with primary astrocytes was “strongly suppressed”. Also, in the series on Nrf2 [2], the “levels of Nrf2 (Western blotting), primary human astrocytes” value is recorded as “increase levels of Nrf2”. For the same molecule, in the series on primary rat astrocytes [3] (DMF 24 hours, LPS 0, 10, 30 ng/ml 4 hrs prior to harvest, FIG. 4B), the “LPS induced TNF expression (quantitative PCR)” value is “repressed by DMF in a dose dependent manner”. Further, in the series on primary rat astrocytes [3] (DMF for 6 hrs and 24 hrs, FIG. 4A), the “GFAP expression (quantitative PCR)” value is reported as “inhibits GFAP expression in a concentration dependent manner”. In addition, in the series on primary rat astrocytes [3] (DMF for 6 hrs and 24 hrs, FIG. 4C), the “NQO1 expression (quantitative PCR)” value is on record as “induces NQO1 expression in a concentration dependent manner”. For the same molecule, the EAE disease entry in series [4] (200 mg/kg) is reported as “completely abrogated disease”. In [4] (various doses (5-200 mg/kg qd oral from day 3)), the EAE symptoms entry is recorded as “reduced EAE symptoms in a dose-dependent manner”. The “levels of Nrf2 (Western blotting), primary rat astrocytes” value with Nrf2 [5] is reported as “increase levels of Nrf2”. The “activated astrocytes in grey matter of spinal cords (GFAP antibody)” value with rat spinal cords (EAE) (100 mg/kg DMF versus vehicle alone, FIG. 3) was “fewer activated astrocytes”. Also, the “myelin loss during EAE in rat spinal cords (Luxol Fast Blue morphometry)” value in the series with rat spinal cords (EAE) (FIG. 12) was “diminishes myelin loss”.

Turning to `COC(=O)/C=C/C(=O)O` [MMF, monomethyl fumarate], the “cell viability and relative total cell numbers (calcein AM)” value in series [6] is recorded as “No substantial concentration-dependent changes”. In addition, the “cellular ATP levels at the highest concentration of MMF” value in series [7] is recorded as “appeared to reduce cellular ATP levels”. The concentration giving a half-maximal response (EC50) in [8] came to 5.4 µM.

In general, EC50 refers to the concentration at which the effect is half-maximal.
